EC50, AC50 and IC50 data for 20 molecules are collected here from ChEMBL document CHEMBL1201862, “PubChem BioAssay data set” (2004).

Active and inactive are the calls of the source. Bounds are passed on as bounds.

A short description of assay [1]: cells. The assay is classed as functional, cell-based.
Assay [2] can be described thus: cells. The assay is classed as functional, cell-based. The source holds these as a separate data set.
The next assay deals with INS1. Kind of assay: INS-1E survival protection against cytokine death – cell-based, luminescence, retest, dose response (AID 449756).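 Note: cell death triggered by IL-1 beta plus TNF-alpha plus IFN-gamma mixture; protective hits raise ATP signal compared with cytokine alone wells.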 Type of assay: functional. As to conditions: Rattus norvegicus.
The next assay addresses T1, Aminopeptidase N (Plasmodium falciparum FcB1/Columbia, UniProt O96935).
T1 sequence (O96935 whole entry): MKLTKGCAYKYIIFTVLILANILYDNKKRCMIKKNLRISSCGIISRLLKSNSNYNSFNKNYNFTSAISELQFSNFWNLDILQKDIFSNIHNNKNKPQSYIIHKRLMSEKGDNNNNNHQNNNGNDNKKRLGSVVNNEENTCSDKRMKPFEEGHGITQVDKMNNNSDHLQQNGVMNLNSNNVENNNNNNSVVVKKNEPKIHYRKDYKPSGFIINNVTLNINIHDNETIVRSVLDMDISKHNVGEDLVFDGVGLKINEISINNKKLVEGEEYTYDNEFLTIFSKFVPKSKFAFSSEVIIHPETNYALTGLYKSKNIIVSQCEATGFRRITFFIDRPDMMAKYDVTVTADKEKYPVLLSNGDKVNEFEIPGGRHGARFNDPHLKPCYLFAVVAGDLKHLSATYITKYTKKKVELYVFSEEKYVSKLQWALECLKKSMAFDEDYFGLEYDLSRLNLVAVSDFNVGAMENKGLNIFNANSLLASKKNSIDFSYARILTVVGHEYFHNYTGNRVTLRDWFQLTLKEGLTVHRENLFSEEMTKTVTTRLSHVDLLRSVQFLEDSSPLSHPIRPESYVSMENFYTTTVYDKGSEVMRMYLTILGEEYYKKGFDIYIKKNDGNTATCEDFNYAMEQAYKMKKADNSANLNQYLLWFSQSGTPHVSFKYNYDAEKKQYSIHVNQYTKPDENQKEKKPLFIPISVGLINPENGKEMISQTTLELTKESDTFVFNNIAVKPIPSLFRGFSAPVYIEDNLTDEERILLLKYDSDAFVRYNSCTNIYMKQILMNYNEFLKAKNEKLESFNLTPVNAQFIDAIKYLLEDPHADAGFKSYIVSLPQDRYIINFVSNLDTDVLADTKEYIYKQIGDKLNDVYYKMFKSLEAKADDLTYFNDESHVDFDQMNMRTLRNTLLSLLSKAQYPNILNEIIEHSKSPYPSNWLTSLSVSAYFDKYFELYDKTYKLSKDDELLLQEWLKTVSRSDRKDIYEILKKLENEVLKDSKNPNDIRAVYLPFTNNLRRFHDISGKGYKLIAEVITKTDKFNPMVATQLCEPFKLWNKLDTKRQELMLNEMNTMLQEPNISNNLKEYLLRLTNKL
Kind of assay: malaria alanyl aminopeptidase activity blockers – biochemical, fluorogenic H-Leu-NHMec substrate, 1536-well (AID 1445). Also noted: species or system Plasmodium falciparum 3D7, 3D7.

Assay [3] is described as follows: NIH-3T3 fibroblast cytotoxicity, dose response, cytotoxicity control, cell-based, fluorescence, Alamar Blue, secondary assay (AID 2327).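 Note: NIH-3T3 mouse fibroblasts cultured with fluconazole at 8 µg/mL.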 The assay is classed as functional.
Assay [4] is described as follows: fluconazole-exposed Candida albicans growth modulators – fluorescence, retest, confirmation (AID 2467). Type of assay: functional, cell-based.
Assay [5] addresses T2, Replicative DNA helicase DnaB (Mycobacterium tuberculosis, UniProt P9WMR3).
T2 sequence (P9WMR3 whole entry): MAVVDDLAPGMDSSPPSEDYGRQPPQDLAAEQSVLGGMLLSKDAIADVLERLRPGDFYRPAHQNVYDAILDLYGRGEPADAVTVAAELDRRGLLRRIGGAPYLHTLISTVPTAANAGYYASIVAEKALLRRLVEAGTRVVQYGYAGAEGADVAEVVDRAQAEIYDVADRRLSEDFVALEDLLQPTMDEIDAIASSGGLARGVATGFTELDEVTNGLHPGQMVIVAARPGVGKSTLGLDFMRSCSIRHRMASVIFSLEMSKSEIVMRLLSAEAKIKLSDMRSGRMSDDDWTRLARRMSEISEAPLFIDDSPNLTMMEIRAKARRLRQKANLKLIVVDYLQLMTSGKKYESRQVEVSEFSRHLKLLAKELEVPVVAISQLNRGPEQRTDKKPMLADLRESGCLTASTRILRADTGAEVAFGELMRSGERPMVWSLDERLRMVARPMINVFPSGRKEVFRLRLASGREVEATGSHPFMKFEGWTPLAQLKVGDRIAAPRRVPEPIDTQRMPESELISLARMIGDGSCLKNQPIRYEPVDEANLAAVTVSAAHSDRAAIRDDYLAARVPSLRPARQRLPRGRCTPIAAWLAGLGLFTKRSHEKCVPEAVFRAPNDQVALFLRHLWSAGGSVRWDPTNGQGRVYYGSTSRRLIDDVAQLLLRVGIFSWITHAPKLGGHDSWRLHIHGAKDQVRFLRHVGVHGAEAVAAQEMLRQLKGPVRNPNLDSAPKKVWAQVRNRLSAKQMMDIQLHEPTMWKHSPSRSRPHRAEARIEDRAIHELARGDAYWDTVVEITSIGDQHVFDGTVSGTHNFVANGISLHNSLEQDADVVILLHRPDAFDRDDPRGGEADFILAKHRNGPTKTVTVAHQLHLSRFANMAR
Kind of assay: DnaB intein splicing inhibitors, dose response, biochemical, cell-free fluorescence (AID 449749). Type of assay: functional.

A further assay addresses T3, Leucine aminopeptidase (Plasmodium falciparum 3D7, UniProt Q8IL11).
T3 sequence (Q8IL11 whole entry): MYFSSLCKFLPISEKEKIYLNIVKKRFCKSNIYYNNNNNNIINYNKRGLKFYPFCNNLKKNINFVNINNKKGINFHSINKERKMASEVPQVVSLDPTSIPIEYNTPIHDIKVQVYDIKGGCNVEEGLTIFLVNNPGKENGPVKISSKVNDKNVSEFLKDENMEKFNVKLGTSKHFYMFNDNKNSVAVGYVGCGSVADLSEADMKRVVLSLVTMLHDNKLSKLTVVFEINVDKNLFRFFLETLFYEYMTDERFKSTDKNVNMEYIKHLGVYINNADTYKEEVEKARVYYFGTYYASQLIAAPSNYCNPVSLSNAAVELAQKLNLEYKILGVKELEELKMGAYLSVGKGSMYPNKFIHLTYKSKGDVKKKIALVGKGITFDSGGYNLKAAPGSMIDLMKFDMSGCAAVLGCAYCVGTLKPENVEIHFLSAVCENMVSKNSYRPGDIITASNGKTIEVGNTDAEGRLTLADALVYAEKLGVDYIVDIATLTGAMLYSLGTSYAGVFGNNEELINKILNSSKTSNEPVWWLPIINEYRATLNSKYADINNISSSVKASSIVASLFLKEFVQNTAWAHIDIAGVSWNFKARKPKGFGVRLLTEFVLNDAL
The experiment in a line: P. falciparum M17LAP inhibitors, primary screen, biochemical, fluorogenic H-Leu-NHMec substrate, 1536-well (AID 1619). The assay is classed as functional.

A further assay addresses T4, Protein RecA (Mycobacterium tuberculosis, UniProt P9WHJ3).
T4 sequence (P9WHJ3 whole entry): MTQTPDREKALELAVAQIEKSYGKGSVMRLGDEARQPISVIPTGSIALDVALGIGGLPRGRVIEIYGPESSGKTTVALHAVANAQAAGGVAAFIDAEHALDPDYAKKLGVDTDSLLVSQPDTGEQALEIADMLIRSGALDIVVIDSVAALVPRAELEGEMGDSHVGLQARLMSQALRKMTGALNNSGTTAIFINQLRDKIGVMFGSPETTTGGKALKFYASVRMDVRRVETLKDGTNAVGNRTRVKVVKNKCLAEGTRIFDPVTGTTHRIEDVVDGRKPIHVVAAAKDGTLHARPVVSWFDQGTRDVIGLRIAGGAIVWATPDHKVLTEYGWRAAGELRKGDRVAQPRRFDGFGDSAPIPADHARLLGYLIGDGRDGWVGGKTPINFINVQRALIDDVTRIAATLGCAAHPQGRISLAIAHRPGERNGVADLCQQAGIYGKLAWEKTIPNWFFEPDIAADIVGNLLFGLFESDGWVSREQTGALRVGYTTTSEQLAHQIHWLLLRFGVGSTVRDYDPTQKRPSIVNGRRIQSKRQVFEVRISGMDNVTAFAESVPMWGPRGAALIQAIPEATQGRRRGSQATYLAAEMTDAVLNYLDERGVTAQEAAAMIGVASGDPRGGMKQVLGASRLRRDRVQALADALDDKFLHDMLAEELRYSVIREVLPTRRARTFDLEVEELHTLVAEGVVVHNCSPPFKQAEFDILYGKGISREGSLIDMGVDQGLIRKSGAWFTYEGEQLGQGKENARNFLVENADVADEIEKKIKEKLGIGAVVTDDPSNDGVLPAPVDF
The experiment in a line: Fluorescence Cell-Free Homogeneous Dose Retest to Identify Inhibitors of RecA-Intein Splicing Activity. [Related pubchem assays (depositor defined):AID2097, AID2223, AID489010, AID492950]. The assay is classed as functional.

Assay [6] has as its target T5, Rac GTPase-activating protein 1 (Homo sapiens, UniProt Q9H0H5).
T5 sequence (Q9H0H5 whole entry): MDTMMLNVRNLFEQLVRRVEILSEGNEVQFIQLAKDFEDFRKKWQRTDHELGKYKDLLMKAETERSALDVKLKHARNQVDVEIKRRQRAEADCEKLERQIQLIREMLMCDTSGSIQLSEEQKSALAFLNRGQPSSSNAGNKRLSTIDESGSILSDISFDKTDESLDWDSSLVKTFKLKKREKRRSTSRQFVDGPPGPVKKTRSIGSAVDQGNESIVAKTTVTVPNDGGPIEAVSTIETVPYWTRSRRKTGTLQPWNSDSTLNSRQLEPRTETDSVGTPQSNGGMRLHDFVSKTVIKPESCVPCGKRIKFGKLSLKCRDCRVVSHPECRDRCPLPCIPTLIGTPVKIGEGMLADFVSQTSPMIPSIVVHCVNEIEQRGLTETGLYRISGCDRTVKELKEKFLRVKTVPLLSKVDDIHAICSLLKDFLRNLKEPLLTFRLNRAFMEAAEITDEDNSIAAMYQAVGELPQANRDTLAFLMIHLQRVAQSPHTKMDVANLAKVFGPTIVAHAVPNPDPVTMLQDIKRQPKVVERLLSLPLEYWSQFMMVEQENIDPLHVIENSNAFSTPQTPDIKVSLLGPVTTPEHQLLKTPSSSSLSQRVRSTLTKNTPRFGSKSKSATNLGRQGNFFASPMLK
The experiment in a line: blockers of MgcRacGAP-driven Rac1 GTP hydrolysis – biochemical, ADP Hunter fluorescence, primary and confirmatory, confirmation (AID 624330). The assay is classed as functional.

For `Cn1cccc1C(=O)NC(=O)COC(=O)c1cc(S(=O)(=O)N2CCCCC2)ccc1Cl`, the half-maximal effective concentration (EC50) in the assay “cells [1]” and in “cells [2]” was > 350 µM (not active) throughout. On to `Cc1cccc(/C=N/NC(=O)c2c(-c3ccccc3)noc2C)c1O`, for which the EC50 is > 350 µM (not active) in the assay “cells [1]” and 23 µM (active) in the assay “cells [2]”. Further, the concentration at half-maximal activity (AC50) in the assay with INS1 was 1.5 µM (active).

As to `O=c1oc2c(CN3CCOCC3)c(O)c(Cl)cc2c2c1CCCC2`, the IC50 at Aminopeptidase N was 32.2 µM (active).

As to `CCOC(=O)c1c(C)[nH]c(C(=O)OCc2ccccc2F)c1C`, the concentration giving a half-maximal response (EC50) in “cells [1]” is 93.5 µM (active); in “cells [2]”, > 350 µM (not active). `Cc1ccc(C2(C)NC(=O)N(CC(=O)NC(=O)NC(C)(C)C)C2=O)cc1` (configuration not stated): the 50% effective concentration (EC50) in “cells [1]” and in “cells [2]” was > 350 µM (not active) in each case. Turning to `O=c1oc2c(CN3CCOCC3)c(O)c(Cl)cc2c2c1CCC2`, the IC50 on Aminopeptidase N is 42.9 µM (active). For `O=C(C[n+]1ccn(CCCNP2(=O)C=C(c3ccccc3)OC(c3ccccc3)=C2)c1)c1cccs1`, the EC50 in the assay “cells [1]” and in “cells [2]” was > 350 µM (not active) throughout. Consider `N#Cc1c(-c2ccccc2)nc(SCC(=O)N(c2ccccc2)c2ccccc2)[nH]c1=O`, for which the IC50 on Aminopeptidase N is 34.3 µM (active). For `Cn1ncc(Br)c1C(=O)OCC(=O)Nc1nc(-c2ccccc2)cs1`, the results for the EC50 in “cells [1]” and in the assay “cells [2]” were 36.4 µM (active) and > 350 µM (not active), respectively. In the case of `OCCN1CCN(C(S)=NC2CCCC2)CC1`, the EC50 was 50.8 µM (active) in [3] and 5.25 µM (active) in assay [4].

For the molecule `CCOC(=O)CC1C(=O)NCCN1c1nc2c(C)cccn2c(=O)c1/C=C1\SC(=S)N(CC(C)C)C1=O` (configuration not stated), the IC50 on Aminopeptidase N was 42.5 µM (active).

As for `O=[N+]([O-])c1ccc(/C(=N\c2cccc3ccccc23)N2CCOCC2)cc1`, the figures for the EC50 in assay [3] and in assay [4] were > 150 µM (inactive) and > 38 µM (not active), respectively. Regarding `C/C(=C\c1ccco1)C1C(C#N)=C(N)Oc2[nH]nc(-c3ccccc3)c21` (configuration not stated), the AC50 in assay [5] was 6.38 µM (active). Also, at Leucine aminopeptidase, the IC50 is 83.7 µM (active). At Protein RecA, the EC50 was 3.12 µM (active).

For `O=C1c2ccccc2C(=O)N1/N=C/c1ccc(O)c(O)c1`, the values for the IC50 (in [6]; at Leucine aminopeptidase) were 44.5 µM (active) and 30.4 µM (active), respectively. As to `O=C1c2ccccc2NC(c2c[nH]nc2-c2ccc(Cl)cc2)N1O` (configuration not stated), the EC50 in [3] is > 160 µM (inactive); in assay [4] it was > 38 µM (not active). `CCOC(=O)C1=C(Nc2ccc(C)cc2)S/C(=C\c2ccc(OCC(=O)O)c(OCC)c2)C1=O`: the half-maximal inhibitory concentration (IC50) at Leucine aminopeptidase was 15.6 µM (active); at Aminopeptidase N it was 48.6 µM (active). On to `CCCC1C(c2ccco2)NC(c2ccco2)CC1(C)O` (configuration not stated), for which the EC50 in assay [3] is > 150 µM (inactive); in [4] it was 8.34 µM (active). With `CC(=O)Nc1ccc(NC(=O)CCCN2C(=O)c3ccccc3C2=O)cc1`, in [3], the EC50 is > 150 µM (inactive). `N#C[C-](C#N)c1nc2ccccc2nc1-[n+]1cccc(NC(=O)c2ccc(F)cc2)c1`: the EC50 in the assay “cells [1]” and in the assay “cells [2]” was > 350 µM (not active) each time. For the molecule `CCN(CC)CCNCc1nc2ccccc2c(=O)n1-c1ccc(F)cc1`, the half-maximal effective concentration (EC50) in the assay “cells [1]” and in “cells [2]” was > 350 µM (not active) in each case.
